Data: patent US8283311B2, “Peptide-containing food intake regulator” (Maruha Nichiro Foods, Inc., priority 2008, dated 2012)
Ends that are not written are not given here.

Test system: Male SD rats
Experiment: Measurement of food intake after intravenous administration
Format: in vivo
Settings: test conditions not stated for this peptide
Procedure: Male SD rats (Sprague-Dawley, body weight of 275±25 g) were housed and fed in 45×23×15-cm APECR cages, five rats per cage. The rats were acclimated for 1 week or more on a 12-h light/12-h dark cycle at a room temperature of 22 to 24° C. and a humidity of 60 to 80% with free access to food and water before the test. The rats used for the test were fasted for 12 hours overnight before initiation of the test. After fasting, the samples to be tested as the food intake regulator were dissolved in saline and the dissolved test samples were intravenously given (150 μg/body) to the rats, respectively, in the treatment group and, then, their food intakes were measured 1, 2, 4, and […] administration. In contrast, in the control group, saline was intravenously given and their food intakes were measured in the same way.

GRVYRPCWQV [SEQ ID NO: 34]
food intake regulation activity: no food intake regulation activity
